One data set concerns rats. To be noted: p.o.; cited from earlier work.
Data set [1] relates to small American flour-beetle (Tribolium confusum) larvae. As to the kind of experiment: Insecticidal effect on flour-beetle larvae, application onto dorsal cuticulum (Example 17, Table III). The conditions noted are these: topical, 96 h. As for the experimental part: From the 2,3-dihydro-2,2-dimethyl-7-benzofuranyl-N-methyl-N-(N'-morpholinomethyl)-carbamate, dioxacarb and carbofuran series of dilutions are prepared in acetone: the active ingredient content of the solutions amounts to 40.5, 13.5, 4.5, 1.5, 0.5, 0.16 and 0.05 […] per […], respectively. The solutions (0.5 μl) are applied with the aid of a Hamilton syringe onto the dorsal cuticulum of small American flour-beetle (Tribolium confusum) of L6 larva stage. The age of the larvae is determined on the basis of the average larva weight (=1.81±0.37 mg/larva) See Sokoloff 1972.
Two replicates are used for each concentration (10 individuals per replicate). The insecticidal effect of the test compounds is evaluated after 96 hours on the basis of the percental ratio of killed larvae.

Data set [2] has as its system house fly (Musca domestica). As to the kind of experiment: whole plant or invertebrate. Format: in vivo. On the procedure:
From the compound according to Example 1 a series of dilution is prepared in acetone; concentration: 0.6, 0.2, 0.067 and 0.022% by weight, respectively. From these solutions 0.5 ml each is poured dropwise onto Whatman No. 1 filter paper discs (diameter 90 mm) placed in Petri-dishes. The discs were previously treated with 0.5 ml of a 0.04% piperonyl butoxide solution. After the evaporation of the acetone 3-5 days' old house fly (Musca domestica) imagos being under slight carbon dioxide narcosis are placed onto the filter paper discs. The test is evaluated as described in Example 16.

The test system of data set [3] is house fly (Musca domestica). As to the kind of experiment: Insecticidal activity on house fly, treated filter paper discs (Example 16, Table II). The format is in vivo. Also noted: mortality: concentration or dose not given beside the values. On the procedure: From the test compounds a series of dilution disclosed in Example 15 is prepared whereupon 3-5 days' old house fly (Musca domestica) images being under slight carbon dioxide narcosis are placed onto the infected treated filter paper discs. Three replicates ([…] each) are used for each concentration. The insecticidal activity of the test compounds and that of the referent compounds is evaluated after 24 hours on the basis of the percental ratio of the killed and paralyzed flies. In the solvent control grop there was no mortality.

A further data set in a line: in vivo. Also noted: species or system rats. To be noted: rat, po. An excerpt: The acute toxicity data (p.o.) of the test compounds are disclosed in Table IV.
In data set [4] the test system is bean beetle (Acanthoscalides obtectus). Kind of data set: Pesticidal effect on bean beetle, treated filter paper discs (Example 15, Table I). To be noted: 24 hours, killed and paralysed. The format is in vivo. On the procedure: From the compounds of the present invention a series of dilution is prepared in acetone; concentration 1, 0.2, 0.04, 0.008 and 0.0016%, respectively. The solutions thus obtained (0.5 ml) are poured dropwise onto Whatman No. 1. filter paper discs (diameter 90 mm) placed in Petri-dishes. After the solvent has evaporated 1-2 weeks' old bean beetle (Acanthoscalides obtectus) images are placed into the Petri-dishes. 3 replicates (10-15 insects each) are used for each concentration. The pesticidal effect of the test compounds is evaluated after 24 hours, on the basis of the percental ratio of the killed and paralysed individuals.

Where [5] appears, read: concentration of active ingredient 0.0016%.
Where [6] appears, read: concentration of active ingredient 0.008%.
Where [7] appears, read: concentration of active ingredient 0.04%.
Setting [8] is: concentration of active ingredient 0.2%.
The mark [9] stands for this setting: concentration of active ingredient 1%.
Where [10] appears, read: female rats, p.o., read-out: acute toxicity (p.o.) on female rats.
Setting [11] is: male rats, p.o., read-out: acute toxicity (p.o.) on male rats.

Read-outs that look alike come from different tables or passages of the source.

On to `CNC(=O)Oc1cccc2c1OC(C)(C)C2` [Carbofuran, 2,3-dihydro-2,2-dimethyl-benzofurane-7-yl-methyl-carbamate, reference compound], for which the “acute toxicity LD50” value in the data set on rats was 8 to 10 mg/kg. In data set [1], this compound registered a mortality at 0.03 µg/larva of 30%, a mortality at 0.16 µg/larva of 70%, a mortality at 0.5 µg/larva of 100% and a mortality at 1.5 µg/larva of 100%. Besides, in data set [1], the mortality at 4.5 µg/larva is 100%, the mortality at 13 µg/larva is 100% and the mortality at 40.5 µg/larva was found to be 100%. The mortality at 0.022 % in data set [2] (concentration of active ingredient 0.022%, evaluated as Example 16 (24 hours), read-out: mortality %) came out at 71%. For the same compound, in data set [2] (concentration of active ingredient 0.067%, evaluated as Example 16 (24 hours), read-out: mortality %), the mortality at 0.067 % was determined as 100%. For the same compound, the mortality at 0.2 % in data set [2] (concentration of active ingredient 0.2%, evaluated as Example 16 (24 hours), read-out: mortality %) stood at 100%. The mortality at 0.6 % in data set [2] (concentration of active ingredient 0.6%, evaluated as Example 16 (24 hours), read-out: mortality %) came out at 100%. In addition, the mortality in data set [3] (24 hours, killed and paralyzed) was 53%. Also, the mortality at 0.0016 % in data set [3] (concentration of active ingredient 0.0016%, 24 hours, killed and paralyzed, read-out: mortality %) stood at 43%. Further, the mortality at 0.04 % in data set [3] (concentration of active ingredient 0.04%, 24 hours, killed and paralyzed, read-out: mortality %) was found to be 67%. Besides, the mortality at 0.2 % in data set [3] (concentration of active ingredient 0.2%, 24 hours, killed and paralyzed, read-out: mortality %) came to 100%. For the same compound, the mortality at 1 % in data set [3] (concentration of active ingredient 1%, 24 hours, killed and paralyzed, read-out: mortality %) amounted to 100%. The compound further had an LD50 in “in vivo” (acute toxicity (p.o.) on male rats) of 8 to 14 mg/kg. Further, in data set [4] (setting [5]), the mortality % is 0%. The compound also had a mortality % in data set [4] (setting [6]) of 93%. In addition, the mortality % in data set [4] (setting [7]) is recorded as 100%. For the same compound, the mortality % in data set [4] (setting [8]) is 100%. Besides, the mortality % in data set [4] (setting [9]) was determined as 100%.
As for `CNC(=O)Oc1ccccc1C1OCCO1` [Dioxacarb, reference compound], in data set [1], the mortality at 0.03 µg/larva worked out at 25%, the mortality at 0.16 µg/larva is 40%, the mortality at 0.5 µg/larva was 45% and the mortality at 1.5 µg/larva amounted to 50%. In data set [1], this compound had a mortality at 4.5 µg/larva of 50%, a mortality at 13 µg/larva of 55% and a mortality at 40.5 µg/larva of 80%. Also, in data set [3] (24 h), the mortality at 0.0016 % was determined as 0%, the mortality at 0.04 % was 17%, the mortality at 0.08 % is 10% and the mortality at 0.2 % came to 90%. This compound also yielded a mortality at 1 % in data set [3] (24 h) of 100%. Further, the mortality % in data set [4] (setting [5]) is on record as 0%. This compound also registered a mortality % in data set [4] (setting [6]) of 30%. The mortality % in data set [4] (setting [7]) is given as 43%. Further, the mortality % in data set [4] (setting [8]) was found to be 93%. Besides, in data set [4] (setting [9]), the mortality % turned out to be 100%.
In data set [1], `CN(CN1CCOCC1)C(=O)Oc1cccc2c1OC(C)(C)C2` [Example 1, 2,3-dihydro-2,2-dimethyl-7-benzofuranyl-N-methyl-N-(N'-morpholinyl-methyl)-carbamate] had a mortality at 0.03 µg/larva of 75%, a mortality at 0.16 µg/larva of 80%, a mortality at 0.5 µg/larva of 90% and a mortality at 1.5 µg/larva of 90%. Also, in data set [1], the mortality at 4.5 µg/larva was 95%, the mortality at 13 µg/larva came out at 100% and the mortality at 40.5 µg/larva worked out at 100%. In data set [2] (24 h), the mortality at 0.022 % was 32%, the mortality at 0.067 % came to 78%, the mortality at 0.2 % came to 100% and the mortality at 0.6 % was 100%. In data set [3] (24 h), this compound displayed a mortality at 0.0016 % of 30%, a mortality at 0.04 % of 43%, a mortality at 0.08 % of 40% and a mortality at 0.2 % of 80%. Also, in data set [3] (24 h), the mortality at 1 % amounted to 100%. In “in vivo” (setting [10]), the LD50 came to 50 mg/kg. Also, the LD50 in “in vivo” (setting [11]) is 50 mg/kg. The mortality % in data set [4] (setting [5]) came to 0%. In addition, the mortality % in data set [4] (setting [6]) is 50%. In addition, the mortality % in data set [4] (setting [7]) stood at 87%. Moreover, in data set [4] (setting [8]), the mortality % was determined as 97%. Moreover, the mortality % in data set [4] (setting [9]) was determined as 100%.
`CC(C)NCN(C)C(=O)Oc1cccc2c1OC(C)(C)C2` [Example 2, 2,3-dihydro-2,2-dimethyl-7-benzofuranyl-N-methyl-N-/isopropyl-amino-methyl/-carbamate]: in data set [3] (24 h), the mortality at 0.0016 % came to 0%, the mortality at 0.04 % turned out to be 30%, the mortality at 0.08 % stood at 10% and the mortality at 0.2 % stood at 67%. The mortality at 1 % in data set [3] (24 h) worked out at 90%. The same compound showed a mortality % in data set [4] (setting [5]) of 0%. The compound further returned a mortality % in data set [4] (setting [6]) of 40%. The compound also had a mortality % in data set [4] (setting [7]) of 60%. In data set [4] (setting [8]), this compound had a mortality % of 100%. This compound also yielded a mortality % in data set [4] (setting [9]) of 100%.
The compound `CCOC(=O)CCN(CN(C)C(=O)Oc1cccc2c1OC(C)(C)C2)C(C)C` [Example 3, 2,3-dihydro-2,2-dimethyl-7-benzofuranyl-N-methyl-N-[(N'-isopropyl)-N'-(β-carbethoxy-ethyl)-amino-methyl]-carbamate] displayed a mortality at 0.0016 % in data set [3] (24 h) of 0%. For the same compound, the mortality at 0.04 % in data set [3] (24 h) was 40%. Moreover, the mortality at 0.08 % in data set [3] (24 h) was 33%. The compound also had a mortality at 0.2 % in data set [3] (24 h) of 70%. This compound had a mortality at 1 % in data set [3] (24 h) of 97%. The LD50 in “in vivo” (setting [10]) is 31.8 mg/kg; in the data set “in vivo” (setting [11]), 23.3 mg/kg. For the same compound, the mortality % in data set [4] (setting [5]) is reported as 0%; in data set [4] (setting [6]), 27%; in data set [4] (setting [7]), 53%; in data set [4] (setting [8]) it was 80%; in data set [4] (setting [9]), 97%.
In data set [3] (24 h), `COc1ccc(CCNCN(C)C(=O)Oc2cccc3c2OC(C)(C)C3)cc1OC` [Example 4, 2,3-dihydro-2,2-dimethyl-7-benzofuranyl-N-methyl-N-[3,4-(dimethoxy)-phenylethyl]-amino-methyl-carbamate] had a mortality at 0.0016 % of 0%, a mortality at 0.04 % of 37%, a mortality at 0.08 % of 20% and a mortality at 0.2 % of 83%. The same compound had a mortality at 1 % in data set [3] (24 h) of 100%. The compound also yielded a mortality % in data set [4] (setting [5]) of 0%. The compound also came in with a mortality % in data set [4] (setting [6]) of 37%. Also, in data set [4] (setting [7]), the mortality % is 70%. For the same compound, in data set [4] (setting [8]), the mortality % stood at 87%. Further, the mortality % in data set [4] (setting [9]) was determined as 100%.

As usually defined, the mortality is the percentage killed.

Source of the values: patent US4788217A, “Pesticidal carbamates” (priority 1984, dated 1988).
